Measured values published in patent US20240400638A1, “COMBINATION OF RELAXIN AND VASOPRESSIN ANALOGUES FOR TREATMENT OF RENAL DISORDERS OR CONDITIONS” (River 2 Renal Corp., priority 2021, published 2024).
Read-outs that look alike come from different tables or passages of the source. Numbered stars: 1 amine (or outer) side, 2 acyl side, 3 side chain; on linkers, the order of the positions; unused ones are H or OH. Square brackets hold non-standard residues; d marks the D form. Side chains are listed from the residue outwards. Peptide text beside a SMILES is read from it. * marks the point of attachment. X1 = CCCCCCCCCCCCCCCC(=O)N[C@@H](CCC(=O)N[C@@H](CCC(=O)N[C@@H](CCC(=O)NCCCOCCOCCOCCCNC(=O)CCC(=O)NCCCOCCOCCOCCCNC(=O)CCC(=O)NCCCOCCOCCOCCCN*)C(=O)O)C(=O)O)C(=O)O; Suc = O=C(CCC(=O)[*:2])[*:1]; αMeK = C[C@](N)(CCCCN)C(=O)O; Aib = CC(C)(N)C(=O)O

How the values were obtained:
Assay type in all cases: in vivo, human
[1] = Phase 1 single dose study in severe renal impaired and normal renal function subjects: safety; conditions: single sc 4.0 mg
Text: (§1) This study is an open label, phase 1, multi-centre, single dose study in severe renal impaired subjects and in matched subjects with normal renal function. In this preliminary evaluation, five subjects with severe renal impairment and two subjects with normal renal function were included.

[2] = Phase 1 SAD/MAD study in healthy volunteers: safety and tolerability
Protocol: (§2) Described in this Example is a Phase 1, randomized, double-blind, pacebo controlled trial for assessing safety, tolerability, PK, and PD of a Relaxin Agonist (i.e., Relaxin peptide analogue of SEQ ID NO: 3).
(§3) The SAD part A was a SAD study with a total of 40 subjects (n=8 per cohort; 6 to Relaxin Agonist and 2 to placebo) to be enrolled sequentially in up to 5 cohorts (Cohorts A1 to A5). Four cohorts received a dose via SC injection only and 1 cohort (Cohort A2, 4.0 mg) was dosed via both SC and IV injection, with at least 2-week washout period between SC and IV injections. The 4.0 mg dosing cohort (Cohort A2) received the IV dose after the 12.0 mg SC cohort (Cohort A3) was completed. Subjects in each cohort received 1 of 5 dose levels (1.0 mg, 4.0 mg, 12.0 mg, 24.0 mg, and 48.0 mg) or matching placebo as follows: • Cohort A1: a single SC dose of 1.0 mg Relaxin Agonist (n=6) or matching placebo (n=2) • Cohort A2: Period 1 a single SC dose of 4.0 mg Relaxin Agonist (n=6) or matching placebo (n=2) • Cohort A2: Period 2 a single 15-min IV dose of 4.0 mg Relaxin Agonist (n=6) or matching placebo (n=2) • Cohort A3: a single SC dose of 12.0 mg Relaxin Agonist (n=6) or matching placebo (n=2) • Cohort A4: a single SC dose of 24.0 mg Relaxin Agonist (n=6) or matching placebo (n=2) • Cohort A5: a single SC dose of 48.0 mg Relaxin Agonist (n=6) or matching placebo (n=2)
In this first-in-human study, the subjects in all SAD cohorts were dosed according to a sentinel dosing design to ensure optimal safety. This meant that initially 2 subjects were dosed: 1 subject with Relaxin Agonist and 1 subject with placebo. If at the lowest dose level (Cohort A1) the safety and tolerability results of the first 48 h following dosing for the initial subjects was acceptable to the Investigator, the other 6 subjects (5 active and 1 placebo) were to be dosed. In Cohorts A2 to A5, the safety and tolerability results of the first 24 h following dose administration were evaluated in the first 2 subjects before the remainder of the subjects in that cohort are dosed.
(§4) In the MAD part B of the study, a total of 24 subjects (n=8 per cohort; 6 to Relaxin Agonist and 2 to placebo) were enrolled sequentially (Cohorts B1 to B3) with subjects within a cohort being enrolled in a parallel fashion. Cohorts B1 to B3 receive one of 3 SC doses (5.0 mg, 15.0 mg, 30.0 mg once daily [QD]) as follows: • Cohort B1: 5.0 mg SC Relaxin Agonist (n=6) or matching placebo (n=2) QD for 14 days • Cohort B2: 15.0 mg SC Relaxin Agonist (n=6) or matching placebo (n=2) QD for 14 days • Cohort B3: 30.0 mg SC Relaxin Agonist (n=6) or matching placebo (n=2) QD for 14 days

[3] = Phase 1 SAD/MAD study in healthy volunteers: pharmacokinetics; conditions: for AUC(0-t): read-out: AUC0-24
Protocol: as §2, §3, §4
After 24 mg and 48 mg sc doses, higher than dose-proportional exposures were observed (approximately 15% higher than expected).
Therefore, after sc administration, the absolute bioavailability (F) is approximately 0.76.
Preliminary PK results after single and multiple ascending doses of Relaxin Agonist administered subcutaneously (sc) are summarized in Table 6. For all dose regimens (5 mg, 15 mg, and 30 mg), an accumulation of approximately 2.6-fold was observed on Day 14.

[4] = Phase 1 single dose study in severe renal impaired and normal renal function subjects: pharmacokinetics; conditions: for AUC(0-inf) / Cmax: human, in vivo, sc, 4 mg, single 4.0 mg sc; for AUC(0-inf): read-out: AUCINF_pred
Text: as §1
This study is a Phase 1, multi-center, single dose study in severe renal impaired subjects and in matched subjects with normal renal function. Five subjects with severe renal impairment and two subjects with normal renal function were included. PK sampling was performed predose and at 1, 2, 3, 4, 6, 8, 10, 12, 24, 48, 72, 96, and 120 h postdose.

[5] = part B: once daily sc 5.0, 15.0, 30 mg for 14 days
[6] = severe renal impaired group compared to normal group and SAD 4 mg group

CCCCCCCCCCCCCCCC(=O)N[C@@H](CCC(=O)N[C@@H](CCC(=O)N[C@@H](CCC(=O)NCCCOCCOCCOCCCNC(=O)CCC(=O)NCCCOCCOCCOCCCNC(=O)CCC(=O)NCCCOCCOCCOCCCNC(=O)CCC(=O)NCCCC[C@H](NC(=O)CNC(=O)[C@H](CCC(=O)O)NC(=O)C(C)(C)NC(=O)C(C)(C)NC(=O)[C@@H](NC(=O)[C@H](CCCCNC(C)=O)NC(=O)[C@H](C)NC(=O)[C@H](CCCNC(=N)N)NC(=O)[C@@H](NC(=O)[C@H](CCCCN)NC(=O)[C@H](CCC(=O)O)NC(=O)[C@H](CCCNC(=N)N)NC(=O)CNC(=O)[C@H](CCC(=O)O)NC(=O)[C@H](CC(C)C)NC(C)=O)C(C)C)[C@@H](C)CC)C(=O)N[C@@H](CO)C(=O)N[C@H](C(=O)N[C@@H](Cc1ccccc1)C(=O)N[C@@H](CO)C(=O)N[C@@](C)(CCCCN)C(=O)N[C@@H](CCCNC(=N)N)C(=O)N[C@@H](C)C(=O)N[C@@H](CCCCNC(C)=O)C(N)=O)[C@@H](C)O)C(=O)O)C(=O)O)C(=O)O [SEQ ID NO: 3, Ac-L-E-G-R-E-K-V-R-A-K(Ac)-I-Aib-Aib-E-G-K(TTDS-TTDS-TTDS-gE-gE-gE-Palm)-S--T-F-S-Mly-R-A-K(Ac)-NH2] (Ac-LEGREKVRAK(Ac)I[Aib][Aib]EGK([Suc-X1])STFS[αMeK]RAK(Ac)-NH2)
tolerability and safety ([1]; 5 subjects severe renal impairment and 2 normal renal function): well tolerated and safe | severity of reported adverse events ([1]; two AEs (palpitation, headache) in one subject): grade 1 (mild) | tolerability and safety ([2]; part A: single sc 1.0, 4.0, 12.0, 24, 48 mg and single iv 4.0 mg): well tolerated and safe | severity of reported adverse events ([2]; part A: single sc 1.0-48 mg and iv 4.0 mg): mild (grade 1) | severity of reported adverse events [2, 5]: mild (grade 1) | tolerability and safety [2, 5]: well tolerated and safe | AUCinf after iv administration as compared to sc administration ([3]; 4 mg single dose iv vs sc): ~1.3 fold | Cmax after iv administration as compared to sc administration ([3]; 4 mg single dose iv vs sc): approximately 3.5 fold | accumulation ([3]; Day 14, all dose regimens (5 mg, 15 mg, 30 mg sc QD)): approximately 2.6 fold | exposure higher than expected (higher than dose-proportional) ([3]; after 24 mg and 48 mg sc single doses): approximately 15% | bioavailability ([3]; human, in vivo, 4 mg, after sc administration, read-out: absolute bioavailability (F)): ~76% | Cmax ([3]; human, in vivo, iv, 4 mg, Group A2, single 4.0 mg iv, mean, N=6, read-out: Cmax): 1240 ng/mL | Cmax ([3]; human, in vivo, sc, 1 mg, Group A1, single 1.0 mg sc, mean, N=6, read-out: Cmax): 82.9 ng/mL | Cmax ([3]; human, in vivo, sc, 4 mg, Group A2, single 4.0 mg sc, mean, N=6, read-out: Cmax): 356 ng/mL | AUC(0-t) ([3]; human, in vivo, sc, 5 mg, Group B1, 5 mg sc QD, Day 1, mean, N=6): 7790 ng·h/mL | Cmax ([3]; human, in vivo, sc, 5 mg, Group B1, 5 mg sc QD, Day 1, mean, N=6, read-out: Cmax): 384 ng/mL | Cmax ([3]; human, in vivo, sc, 5 mg, Group B1, 5 mg sc QD, Day 14, mean, N=6, Table 6, read-out: Cmax): 1020 ng/mL | Cmax ([3]; human, in vivo, sc, 5 mg, Group B1, 5 mg sc QD, Day 14, mean, N=6, Table 7, read-out: Cmax): 1020 ng/mL | AUC(0-t) ([3]; human, in vivo, sc, 5 mg, Group B1, 5 mg sc QD, Day 14, mean, N=6): 21600 ng·h/mL | Cmax ([3]; human, in vivo, sc, 12 mg, Group A3, single 12.0 mg sc, mean, N=6, read-out: Cmax): 1000 ng/mL | AUC(0-t) ([3]; human, in vivo, sc, 15 mg, Group B2, 15 mg sc QD, Day 1, mean, N=6): 29600 ng·h/mL | Cmax ([3]; human, in vivo, sc, 15 mg, Group B2, 15 mg sc QD, Day 1, mean, N=6, read-out: Cmax): 1630 ng/mL | Cmax ([3]; human, in vivo, sc, 15 mg, Group B2, 15 mg sc QD, Day 14, mean, N=6, Table 6, read-out: Cmax): 3630 ng/mL | Cmax ([3]; human, in vivo, sc, 15 mg, Group B2, 15 mg sc QD, Day 14, mean, N=6, Table 7, read-out: Cmax): 3630 ng/mL | AUC(0-t) ([3]; human, in vivo, sc, 15 mg, Group B2, 15 mg sc QD, Day 14, mean, N=6): 67200 ng·h/mL | Cmax ([3]; human, in vivo, sc, 24 mg, Group A4, single 24.0 mg sc, mean, N=6, read-out: Cmax): 2360 ng/mL | AUC(0-t) ([3]; human, in vivo, sc, 30 mg, Group B3, 30 mg sc QD, Day 1, mean, N=6): 38400 ng·h/mL | Cmax ([3]; human, in vivo, sc, 30 mg, Group B3, 30 mg sc QD, Day 1, mean, N=6, read-out: Cmax): 2010 ng/mL | Cmax ([3]; human, in vivo, sc, 30 mg, Group B3, 30 mg sc QD, Day 14, mean, N=6, Table 6, read-out: Cmax): 6010 ng/mL | Cmax ([3]; human, in vivo, sc, 30 mg, Group B3, 30 mg sc QD, Day 14, mean, N=6, Table 7, read-out: Cmax): 6010 ng/mL | AUC(0-t) ([3]; human, in vivo, sc, 30 mg, Group B3, 30 mg sc QD, Day 14, mean, N=6): 118000 ng·h/mL | Cmax ([3]; human, in vivo, sc, 48 mg, Group A5, single 48.0 mg sc, mean, N=6, read-out: Cmax): 4560 ng/mL | Cmax ([3]; human, in vivo, subcutaneous, 4 mg, SAD study after 4 mg, read-out: Mean Cmax): 356 ng/mL | AUC(0-inf) ([3]; human, in vivo, Group A1, single 1.0 mg sc, mean, N=6): 3220 ng·h/mL | AUC(0-inf) ([3]; human, in vivo, Group A2, single 4.0 mg iv, mean, N=6): 19700 ng·h/mL | AUC(0-inf) ([3]; human, in vivo, Group A2, single 4.0 mg sc, mean, N=6): 15000 ng·h/mL | AUC(0-inf) ([3]; human, in vivo, Group A3, single 12.0 mg sc, mean, N=6): 37100 ng·h/mL | AUC(0-inf) ([3]; human, in vivo, Group A4, single 24.0 mg sc, mean, N=6): 78600 ng·h/mL | AUC(0-inf) ([3]; human, in vivo, Group A5, single 48.0 mg sc, mean, N=6): 178000 ng·h/mL | AUC(0-inf) ([3]; human, in vivo, Group B1, 5 mg sc QD, Day 14, mean, N=6): 50300 ng·h/mL | half-life ([3]; human, in vivo, Group B1, 5 mg sc QD, Day 14, mean, N=6, read-out: T½ (converted)): 23.4 h | AUC(0-inf) ([3]; human, in vivo, Group B2, 15 mg sc QD, Day 14, mean, N=6): 143000 ng·h/mL | half-life ([3]; human, in vivo, Group B2, 15 mg sc QD, Day 14, mean, N=6, read-out: T½ (converted)): 22.9 h | AUC(0-inf) ([3]; human, in vivo, Group B3, 30 mg sc QD, Day 14, mean, N=6): 278000 ng·h/mL | half-life ([3]; human, in vivo, Group B3, 30 mg sc QD, Day 14, mean, N=6, read-out: T½ (converted)): 24.3 h | half-life ([3]; human, in vivo, sc multiple ascending doses, read-out: Terminal half life): 23 to 24 h | dose proportionality of exposures ([3]; multiple ascending sc doses, up to dose regimen of 30 mg): increased dose-proportionally | dose proportionality of exposures ([3]; single ascending sc doses, up to a dose of 12 mg): increased dose-proportionally | AUC(0-inf) ([4]; Normal renal function group, mean, N=2): 12900 ng·h/mL | Cmax ([4]; Normal renal function group, mean, N=2, read-out: Cmax): 302 ng/mL | AUC(0-inf) ([4]; Severe renal impairment group, mean, N=5): 17000 ng·h/mL | Cmax ([4]; Severe renal impairment group, mean, N=5, read-out: Cmax): 392 ng/mL | Cmax ([4]; normal group, read-out: Mean Cmax): 302 ng/mL | Cmax ([4]; severe renal impaired group, read-out: Mean Cmax): 392 ng/mL | increase of mean AUCinf [4, 6]: 14-31% | increase of mean Cmax [4, 6]: 10-30%
